Reference: ChEMBL document CHEMBL1142873, “Synthesis, structural activity relationship and anti-tubercular activity of novel pyrazoline derivatives” (2007)
≈ marks a conversion by molar mass, not a printed value.

What was measured:
Assay type in all cases: functional
[1] = test system: Mycobacterium tuberculosis; assay: Antimycobacterial activity against Mycobacterium tuberculosis H37Rv at 0.0118 uM
[2] = test system: Mycobacterium tuberculosis; assay: Antimycobacterial activity against Mycobacterium tuberculosis H37Rv
[3] = test system: Mycobacterium tuberculosis; assay: Antimycobacterial activity against Mycobacterium tuberculosis H37Rv at 0.0164 uM
[4] = test system: Mycobacterium tuberculosis; assay: Antimycobacterial activity against Mycobacterium tuberculosis H37Rv at 0.0202 uM
[5] = test system: Mycobacterium tuberculosis; assay: Antimycobacterial activity against Mycobacterium tuberculosis H37Rv at 0.2080 uM
[6] = test system: Mycobacterium tuberculosis; assay: Antimycobacterial activity against Mycobacterium tuberculosis H37Rv at 0.0201 uM
[7] = test system: Mycobacterium tuberculosis; assay: Antimycobacterial activity against Mycobacterium tuberculosis H37Rv at 0.1706 uM
[8] = test system: Mycobacterium tuberculosis; assay: Antimycobacterial activity against Mycobacterium tuberculosis H37Rv at 0.0138 uM
[9] = test system: Mycobacterium tuberculosis; assay: Antimycobacterial activity against Mycobacterium tuberculosis H37Rv at 0.0140 uM
[10] = test system: Mycobacterium tuberculosis; assay: Antimycobacterial activity against Mycobacterium tuberculosis H37Rv at 0.0354 uM
[11] = test system: Mycobacterium tuberculosis; assay: Antimycobacterial activity against Mycobacterium tuberculosis H37Rv at 0.0135 uM
[12] = test system: Mycobacterium tuberculosis; assay: Antimycobacterial activity against Mycobacterium tuberculosis H37Rv at 0.0149 uM
[13] = test system: Mycobacterium tuberculosis; assay: Antimycobacterial activity against Mycobacterium tuberculosis H37Rv at 0.0977 uM
[14] = test system: Mycobacterium tuberculosis; assay: Antimycobacterial activity against Mycobacterium tuberculosis H37Rv at 0.0148 uM
[15] = test system: Mycobacterium tuberculosis; assay: Antimycobacterial activity against Mycobacterium tuberculosis H37Rv at 0.0143 uM
[16] = test system: Mycobacterium tuberculosis; assay: Antimycobacterial activity against Mycobacterium tuberculosis H37Rv at 0.0132 uM
[17] = test system: Mycobacterium tuberculosis; assay: Antimycobacterial activity against Mycobacterium tuberculosis H37Rv at 0.0092 uM
[18] = test system: Mycobacterium tuberculosis; assay: Antimycobacterial activity against Mycobacterium tuberculosis H37Rv at 0.0034 uM
[19] = test system: Mycobacterium tuberculosis; assay: Antimycobacterial activity against Mycobacterium tuberculosis H37Rv at 0.1467 uM
[20] = test system: Mycobacterium tuberculosis; assay: Antimycobacterial activity against Mycobacterium tuberculosis H37Rv at 0.0150 uM
[21] = test system: Mycobacterium tuberculosis; assay: Antimycobacterial activity against Mycobacterium tuberculosis H37Rv at 0.0084 uM
[22] = test system: Mycobacterium tuberculosis; assay: Antimycobacterial activity against Mycobacterium tuberculosis H37Rv at 0.0403 uM

COc1ccccc1NC(=S)N1N=C(c2ccc(O)c(C)c2)CC1c1ccc(OC)c(OC)c1 (stereo not given)
inhibition at 0.0118 µM [1]: 88% | MIC [2]: 5.67 µg/mL (≈ 11.9 µM)

COc1ccccc1NC(=S)N1N=C(c2ccc(O)c(C)c2)CC1c1ccc(F)cc1 (stereo not given)
inhibition at 0.0164 µM [3]: 16%

COc1ccccc1NC(=S)N1N=C(c2ccc(O)c(C)c2)CC1c1ccccc1Cl (stereo not given)
inhibition at 0.0202 µM [4]: 44%

COc1ccccc1NC(=S)N1N=C(c2ccc(O)c(C)c2)CC1c1cccc([N+](=O)[O-])c1 (stereo not given)
inhibition at 0.208 µM [5]: 8%

COc1ccccc1NC(=S)N1N=C(c2ccc(O)c(C)c2)CC1Cc1ccco1 (stereo not given)
inhibition at 0.0201 µM [6]: 18%

Cc1cc(C2=NN(C(=S)Nc3ccccc3C)C(Cc3ccco3)C2)ccc1O (stereo not given)
inhibition at 0.1706 µM [7]: 26%

COc1ccccc1NC(=S)N1N=C(c2ccc(O)c(C)c2)CC1c1ccc(Cl)cc1 (stereo not given)
MIC [2]: 6.25 µg/mL (≈ 13.8 µM) | inhibition at 0.0138 µM [8]: 4%

Cc1cc(C2=NN(C(=S)Nc3ccccc3C)C(c3ccc(N(C)C)cc3)C2)ccc1O (stereo not given)
inhibition at 0.014 µM [9]: 12% | MIC [2]: 6.25 µg/mL (≈ 14.1 µM)

Cc1cc(C2=NN(C(=S)Nc3ccccc3C)C(c3ccccc3)C2)ccc1O (stereo not given)
inhibition at 0.0354 µM [10]: 29%

COc1ccccc1NC(=S)N1N=C(c2ccc(O)c(C)c2)CC1c1ccc(N(C)C)cc1 (stereo not given)
MIC [2]: 6.25 µg/mL (≈ 13.6 µM) | inhibition at 0.0135 µM [11]: 28%

COc1ccccc1NC(=S)N1N=C(c2ccc(O)c(C)c2)CC1c1ccccc1 (stereo not given)
inhibition at 0.0149 µM [12]: 6% | MIC [2]: 6.25 µg/mL (≈ 15 µM)

COc1ccc(C2CC(c3ccc(O)c(C)c3)=NN2C(=S)Nc2ccccc2C)cc1OC (stereo not given)
inhibition at 0.0977 µM [13]: 72%

Cc1cc(C2=NN(C(=S)Nc3ccccc3C)C(c3ccc(F)cc3)C2)ccc1O (stereo not given)
MIC [2]: 6.25 µg/mL (≈ 14.9 µM) | inhibition at 0.0148 µM [14]: 32%

Cc1cc(C2=NN(C(=S)Nc3ccccc3C)C(c3c(Cl)cccc3Cl)C2)ccc1O (stereo not given)
MIC [2]: 6.25 µg/mL (≈ 13.3 µM) | inhibition at 0.0143 µM [15]: 21%

Cc1cc(C2=NN(C(=S)Nc3ccccc3C)C(c3cccc([N+](=O)[O-])c3)C2)ccc1O (stereo not given)
inhibition at 0.0132 µM [16]: 14% | MIC [2]: 6.25 µg/mL (≈ 14 µM)

COc1ccc(C2CC(c3ccc(O)c(C)c3)=NN2C(=S)Nc2ccccc2OC)cc1 (stereo not given)
inhibition at 0.0092 µM [17]: 94% | MIC [2]: 4.12 µg/mL (≈ 9.21 µM)

COc1ccccc1NC(=S)N1N=C(c2ccc(O)c(C)c2)CC1c1c(Cl)cccc1Cl (stereo not given)
inhibition at 0.0034 µM [18]: 98% | MIC [2]: 1.66 µg/mL (≈ 3.41 µM)

COc1cc(C2CC(c3ccc(O)c(C)c3)=NN2C(=S)Nc2ccccc2C)cc(OC)c1OC (stereo not given)
inhibition at 0.1467 µM [19]: 44%

Cc1cc(C2=NN(C(=S)Nc3ccccc3C)C(c3ccccc3Cl)C2)ccc1O (stereo not given)
MIC [2]: 6.25 µg/mL (≈ 14.3 µM) | inhibition at 0.015 µM [20]: 33%

COc1ccccc1NC(=S)N1N=C(c2ccc(O)c(C)c2)CC1c1cc(OC)c(OC)c(OC)c1 (stereo not given)
inhibition at 0.0084 µM [21]: 92%

Cc1cc(C2=NN(C(=S)Nc3ccccc3C)C(c3ccc(Cl)cc3)C2)ccc1O (stereo not given)
MIC [2]: 6.25 µg/mL (≈ 14.3 µM) | inhibition at 0.0143 µM [15]: 44%

COc1ccc(C2CC(c3ccc(O)c(C)c3)=NN2C(=S)Nc2ccccc2C)cc1 (stereo not given)
inhibition at 0.0403 µM [22]: 6%

NNC(=O)c1ccncc1 [ISONIAZID]
MIC [2]: 0.025 µg/mL (≈ 0.182 µM)
